Laboratory results from patent publication US20060147558A1, “Remedies” (priority 2000, published 2006).

Tests used:
[1] = system: NGF production of L-M cells; assay: enhancing activity for NGF production: L-M cells cultured 20 h with sample, NGF in medium by enzyme immunoassay; format: cell-based, murine; conditions: for Amount of NGF Produced: control = 100%; for enhancing activity for NGF production: result in words, no value given
Procedure: L-M cells (ATCC CCL-1.2) from murine fibroblasts were suspended in an M199 medium (manufactured by ICN) containing 0.5% bactopeptone (manufactured by Gibco) so as to have a concentration of 1.5×10^5 cells/ml. The suspension was put in a 96 well plate in an amount of 0.1 ml each well, and the cells were aseptically cultured. After culturing the cells for 3 days, the medium was removed therefrom, and exchanged with an M199 medium containing 0.5% bovine serum albumin (manufactured by Sigma). […] After the termination of the culture, the concentration of the nerve growth factor in the culture medium was assayed by an enzyme immunoassay method (NGF Emax Immuno Assay System, manufactured by Promega). The enhancement for NGF production was expressed, assuming that the NGF concentration in the cell culture medium with no addition of the sample is 100%. The experiment was carried out twice, and an average value was taken. As a result, the yellow pigment from Carthamus tinctorius enhanced NGF production of the L-M cells in a concentration dependent manner.

[2] = system: HGF production of MRC-5 cells; assay: enhancing activity for HGF production: MRC-5 cells cultured 24 h with sample, HGF in medium by ELISA; format: cell-based, human; conditions: for Amount of HGF Produced: control = 100%
Procedure: (1) The enhancing activity for HGF production of each of the bamboo blade extract (sample (1)) prepared in item (1) of Example 1, and the lower layer fraction (sample (2)) and the upper layer fraction (sample (3)) prepared in item (2) of Example 1 was assayed. Five-hundred microliters each of MRC-5 cells (CCL 171: manufactured by DAINIPPON PHARMACEUTICAL CO., LTD., code. 02-021) suspended in a DME medium containing 10% fetal bovine serum so as to have a concentration of 1×10^5 cells/ml were added into each well of a 48-well cell culture plate. The cells were cultured at 37° C. for 24 hours in the presence of 5% CO2, and then the medium was exchanged for a DME medium containing 1% fetal bovine serum. Thereafter, the sample was added to the medium, and the cells were further cultured for 24 hours. The medium was then collected, and by using Quantikine Human Hepatocyte Growth Factor (HGF) ELISA Kit (manufactured by Funakoshi, Code. RS-0641-00), the amount of HGF in the medium was determined. The amount of HGF produced was expressed, assuming that the value of the negative control is 100%. […] As the negative control, distilled water was added in the same volume as that of the sample. The amount of HGF produced was expressed, assuming that the value of the negative control is 100%. The results for the sample (1) are shown in Table 1, and the results for the sample (2) and the sample (3) are shown in Table 2. Each experiment was carried out twice, and its average value was taken. […] From the above, it was shown that the bamboo blade extract has an enhancing activity for HGF production.

For `CCOC(=O)/C=C/c1ccc(O)c(O)c1` [Caffeic acid ethyl ester, caffeic acid ethyl ester], the “Amount of NGF Produced” value ([1]; 62.5 μg/ml) was 1279.1%.

`O=C1C([C@@H]2O[C@H](CO)[C@@H](O)[C@H](O)[C@H]2O)=C(O)/C(=C(O)/C=C/c2ccc(O)cc2)C(=O)C1(O)[C@@H]1O[C@H](CO)[C@@H](O)[C@H](O)[C@H]1O` (stereo partly drawn) [Safflomin A, safflomin A] was tested, and the “Amount of NGF Produced” value ([1]; 2.5 mg/ml) was 130.7% and the “enhancing activity for NGF production” value [1] was “has the enhancing activity for NGF production”.

`COC(=O)/C=C/c1ccc(O)c(O)c1` [18-3 (10.6), caffeic acid methyl ester] was tested, and the “Amount of NGF Produced” value ([1]; 0.25 mg/ml) was 3039.6%.

In the case of `O=C(/C=C/c1ccc(O)c(O)c1)O[C@@H]1CC(O)(C(=O)O)C[C@@H](OC(=O)/C=C/c2ccc(O)c(O)c2)C1O` (stereo partly drawn) [3,5-Dicaffeoyl-quinic Acid, 3,5-dicaffeoyl-quinic acid], the “Amount of HGF Produced” value ([2]; 1 μM) is reported as 142%, the “Amount of HGF Produced” value ([2]; 10 μM) is reported as 206% and the “Amount of HGF Produced” value ([2]; 100 μM) is reported as 290%.

In the case of `CC(C)=CCc1c(O[C@@H]2O[C@H](CO)[C@@H](O)[C@H](O)[C@H]2O)ccc2ccc(=O)oc12` [13-2 (8.7), 7-O-β-D-glucopyranosyloxy-8-prenylcoumarin], the “Amount of NGF Produced” value ([1]; 1.0 mg/ml) is reported as 792.1%.

For `CC(C)=CCc1cc2ccc(=O)oc2cc1O[C@@H]1O[C@H](CO)[C@@H](O)[C@H](O)[C@H]1O` [19-, 20-5 (16.4), 7-β-D-glucopyranosyloxy-6-prenylcoumarin], the “Amount of NGF Produced” value ([1]; 1.0 mg/ml) was 487.9%.

In the case of `CCOC(=O)/C=C/c1ccc(O)c(O)c1` [28 (91.4), caffeic acid ethyl ester], the “Amount of NGF Produced” value ([1]; 0.05 mg/ml) is reported as 1058.1%.

In the case of `COc1cc(O)c(CC=C(C)C)c2c1C(=O)CC(c1ccc(O)cc1)O2` (stereo not drawn) [Isoxanthohumol, isoxanthohumol], the “Amount of NGF Produced” value ([1]; 50 μM) is reported as 110.7%, the “Amount of NGF Produced” value ([1]; 100 μM) is reported as 121.4% and the “Amount of NGF Produced” value ([1]; 200 μM) is reported as 198.0%.

With `CC(C)=CCC/C(C)=C/Cc1c(O)ccc(C(=O)/C=C/c2ccc(O)cc2)c1O` [Xanthoangelol, xanthoangelol] the “Amount of NGF Produced” value ([1]; 25 μM) was 126.1%, the “Amount of NGF Produced” value ([1]; 50 μM) was 202.6% and the “Amount of NGF Produced” value ([1]; 100 μM) was 265.7%.

For `COc1ccc(C(=O)O)c2c1CC(O)C(C)(C)O2` (stereo not drawn) [18-4 (10.9), 8-carboxyl-3-hydroxy-5-methoxyl-2-dimethylchroman], the “Amount of NGF Produced” value ([1]; 0.0375 mg/ml) was 2510.4%.

`COC(=O)/C=C/c1ccc(O)c(O)c1` [Caffeic acid methyl ester, caffeic acid methyl ester] was tested, and the “Amount of NGF Produced” value ([1]; 62.5 μg/ml) was 824.4%.

With `CC1(C)Oc2ccc3ccc(=O)oc3c2C(O)C1OC1OC(CO)C(O)C(O)C1O` [10 (62.2), 3′-O-β-D-glucopyranoyl khellactone] the “Amount of NGF Produced” value ([1]; 2.0 mg/ml) was 565.5%.

`COc1cc(O)c(CC=C(C)C)c(O)c1C(=O)/C=C/c1ccc(O)cc1` [Xanthohumol, xanthohumol] was tested, and the “Amount of NGF Produced” value ([1]; 12.5 μM) was 235.5%, the “Amount of NGF Produced” value ([1]; 25 μM) was 387.9% and the “Amount of NGF Produced” value ([1]; 50 μM) was 443.0%. For the same compound, the “enhancing activity for NGF production” value [1] was “has the activity”.

`C/C=C(/C)C(=O)OC1c2c(ccc3ccc(=O)oc23)OC(C)(C)C1O[C@@H]1O[C@H](CO[C@@H]2O[C@H](CO)[C@@H](O)[C@H](O)[C@H]2O)[C@@H](O)[C@H](O)[C@H]1O` (stereo partly drawn) [19-, 20-6 (18.8), 4′-O-angeloyl-3′-O-[6-O-(β-D-glucopyranosyl)-β-D-glucopyranosyl]-khellactone] was tested, and the “Amount of NGF Produced” value ([1]; 1.0 mg/ml) was 337.7%.

With `O=C(/C=C/c1ccc(O)c(O)c1)O[C@@H]1C[C@](O)(C(=O)O)C[C@@H](O)[C@H]1O` [Chlorogenic Acid, chlorogenic acid] the “Amount of HGF Produced” value ([2]; 1 μM) was 105%, the “Amount of HGF Produced” value ([2]; 10 μM) was 122% and the “Amount of HGF Produced” value ([2]; 100 μM) was 302%. For the same compound, the “Amount of HGF Produced” value ([2]; 500 μM) was 479%, the “Amount of HGF Produced” value ([2]; 1000 μM) was 624% and the “enhancing activity for HGF production” value ([2]; result in words, no value given) was “enhancing activity for HGF production existed”.
